Measured values taken from ChEMBL document CHEMBL5376006, “Discovery of a Hidden Pocket beneath the NES Groove by Novel Noncovalent CRM1 Inhibitors” (J Med Chem, 2023).
Calls of active or inactive are those of the source. No cut-off for these calls is given here.

Assays:
HepG2 = experiment: Antiproliferative activity against human HepG2 cells assessed as inhibition of cell growth at 20 uM incubated for 72 hrs by SRB assay; assay type: functional, cell-based
[1] = Cytotoxicity against HEK293T cells assessed as inhibition of cell growth incubated for 72 hrs by SRB assay; assay type: toxicity, cell-based, HEK-293T; conditions: human
OVCAR-8 = experiment: Antiproliferative activity against human OVCAR-8 cells assessed as inhibition of cell growth at 20 uM incubated for 72 hrs by SRB assay; assay type: functional, cell-based
A549 [2] = experiment: Induction of apoptosis in human A549 cells assessed as activation of phosphorylated JNK at 50 uM incubated for 18 hrs by Western blot analysis; assay type: functional, cell-based
[3] = tested on: Exportin-1 (Homo sapiens), O14980 [C528S]; experiment: Inhibition of human CRM1 C528S mutant nuclear export transfected in human MCF7 cells at 50 uM incubated for 4 hrs by confocal microscopic analysis; assay type: cell-based
Exportin-1 (Homo sapiens), O14980 [C528S], sequence (O14980 whole entry C528S): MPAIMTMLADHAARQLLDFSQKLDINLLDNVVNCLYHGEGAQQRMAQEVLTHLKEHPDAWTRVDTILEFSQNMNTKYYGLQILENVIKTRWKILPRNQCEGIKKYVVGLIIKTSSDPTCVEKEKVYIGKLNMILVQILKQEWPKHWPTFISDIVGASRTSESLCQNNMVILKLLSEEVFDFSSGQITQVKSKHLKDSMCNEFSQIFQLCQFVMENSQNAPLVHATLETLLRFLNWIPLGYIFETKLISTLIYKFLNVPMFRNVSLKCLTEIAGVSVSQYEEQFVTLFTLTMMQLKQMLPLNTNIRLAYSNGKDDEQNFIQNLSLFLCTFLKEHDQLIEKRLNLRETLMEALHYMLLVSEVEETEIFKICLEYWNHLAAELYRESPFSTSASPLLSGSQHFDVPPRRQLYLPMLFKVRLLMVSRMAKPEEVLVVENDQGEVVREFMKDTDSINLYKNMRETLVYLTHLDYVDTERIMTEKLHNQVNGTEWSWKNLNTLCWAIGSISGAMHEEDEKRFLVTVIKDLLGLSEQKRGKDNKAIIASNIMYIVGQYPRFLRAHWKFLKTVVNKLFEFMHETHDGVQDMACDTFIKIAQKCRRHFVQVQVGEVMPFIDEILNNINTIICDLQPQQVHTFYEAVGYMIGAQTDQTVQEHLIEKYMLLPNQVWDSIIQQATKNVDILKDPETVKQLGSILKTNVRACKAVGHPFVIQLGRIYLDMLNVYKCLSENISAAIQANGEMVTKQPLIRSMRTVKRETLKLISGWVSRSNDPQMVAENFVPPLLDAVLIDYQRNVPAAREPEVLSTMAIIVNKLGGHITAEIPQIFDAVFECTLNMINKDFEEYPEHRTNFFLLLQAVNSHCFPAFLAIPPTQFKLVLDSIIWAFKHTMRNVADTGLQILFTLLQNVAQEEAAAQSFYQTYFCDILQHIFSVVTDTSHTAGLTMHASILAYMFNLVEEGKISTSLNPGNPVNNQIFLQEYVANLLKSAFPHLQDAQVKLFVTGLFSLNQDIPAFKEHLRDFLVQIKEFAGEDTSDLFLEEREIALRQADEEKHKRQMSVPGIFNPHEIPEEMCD

MCF7 = experiment: Antiproliferative activity against human MCF7 cells assessed as inhibition of cell growth at 20 uM incubated for 72 hrs by SRB assay; assay type: functional, cell-based
A549 [4] = experiment: Antiproliferative activity against human A549 cells assessed as inhibition of cell growth at 20 uM incubated for 72 hrs by SRB assay; assay type: functional, cell-based
A549 [5] = experiment: Induction of apoptosis in human A549 cells assessed as caspase-3 cleavage at 50 uM incubated for 18 hrs by Western blot analysis; assay type: functional, cell-based
HeLa [6] = experiment: Antiproliferative activity against human HeLa cells assessed as inhibition of cell growth incubated for 72 hrs by SRB assay; assay type: functional, cell-based
PANC-1 = experiment: Antiproliferative activity against human PANC-1 cells assessed as inhibition of cell growth at 20 uM incubated for 72 hrs by SRB assay; assay type: functional, cell-based
A549 [7] = experiment: Induction of apoptosis in human A549 cells at 50 uM incubated for 18 hrs by Annexin V-FITC/PI staining based flow cytometric analysis; assay type: functional, cell-based
HuCCT-1 = experiment: Antiproliferative activity against human HuCCT-1 cells assessed as inhibition of cell growth at 20 uM incubated for 72 hrs by SRB assay; assay type: functional, cell-based
Exportin-1 [8] = target: T1, Exportin-1 (Homo sapiens, UniProt O14980); experiment: Inhibition of CRM1 cargo nuclear export in human MCF7 cells at 50 uM incubated for 4 hrs by confocal microscopic analysis; assay type: cell-based
T1 sequence (O14980 whole entry): as the sequence (O14980 whole entry C528S) above, with S528C counted along it

SW480 = experiment: Antiproliferative activity against human SW480 cells assessed as inhibition of cell growth at 20 uM incubated for 72 hrs by SRB assay; assay type: functional, cell-based
A2780 = experiment: Antiproliferative activity against human A2780 cells assessed as inhibition of cell growth at 20 uM incubated for 72 hrs by SRB assay; assay type: functional, cell-based
Exportin-1 [9] = target: T1, Exportin-1; experiment: Binding affinity to CRM1 (unknown origin) assessed as inhibition of CRM1 binding to IAF-conjugated NES PKI by measuring dissociation constant in the presence of RanGTP by competitive MST analysis
A549 [10] = experiment: Inhibition of colony formation in human A549 cells at 20 uM incubated for 48 hrs by crystal violet staining based analysis; assay type: functional, cell-based
HeLa [11] = experiment: Antiproliferative activity against human HeLa cells assessed as inhibition of cell growth at 20 uM incubated for 72 hrs by SRB assay; assay type: functional, cell-based
A549 [12] = experiment: Induction of apoptosis in human A549 cells assessed as PARP-1 cleavage at 50 uM incubated for 18 hrs by Western blot analysis; assay type: functional, cell-based
Exportin-1 [13] = target: T1, Exportin-1; experiment: Inhibition of CRM1 cargo nuclear export in digitonin-permeabilized human HeLa cells at 50 uM incubated for 4 hrs by confocal microscopic analysis; assay type: cell-based
Exportin-1 [14] = target: T1, Exportin-1; experiment: Inhibition of CRM1 cargo nuclear export in human A549 cells at 50 uM incubated for 4 hrs by confocal microscopic analysis; assay type: cell-based
Exportin-1 [15] = target: T1, Exportin-1; experiment: Binding affinity to CRM1 in human HeLa assessed as thermal stabilization at 20 uM incubated at 60 to 84 degreeC for 3 mins by CETSA based Western blot analysis; assay type: cell-based
A549 [16] = experiment: Inhibition of colony formation in human A549 cells at 40 uM incubated for 48 hrs by crystal violet staining based analysis relative to control; assay type: functional
Ishikawa = experiment: Antiproliferative activity against human Ishikawa cells assessed as inhibition of cell growth at 20 uM incubated for 72 hrs by SRB assay; assay type: functional, cell-based
[17] = Solubility of the compound in water; assay type: physicochemical
MDA-MB-453 = experiment: Antiproliferative activity against human MDA-MB-453 cells assessed as inhibition of cell growth at 20 uM incubated for 72 hrs by SRB assay; assay type: functional, cell-based
SK-N-SH [18] = experiment: Antiproliferative activity against human SK-N-SH cells assessed as inhibition of cell growth incubated for 72 hrs by CellTiter Glo assay; assay type: functional, cell-based
HCT-116 [19] = experiment: Antiproliferative activity against human HCT-116 cells assessed as inhibition of cell growth incubated for 72 hrs by CellTiter Glo assay; assay type: functional, cell-based; conditions: HCT-116, 72 h
HCT-116 [20] = experiment: Antiproliferative activity against human HCT-116 cells assessed as inhibition of cell growth incubated for 1 hrs by CellTiter Glo assay; assay type: functional, cell-based; conditions: HCT-116, 1 h
SK-N-SH [21] = experiment: Antiproliferative activity against human SK-N-SH cells assessed as inhibition of cell growth incubated for 1 hrs by CellTiter Glo assay; assay type: functional, cell-based
SiHa [22] = experiment: Antiproliferative activity against human SiHa cells assessed as inhibition of cell growth incubated for 1 hrs by CellTiter Glo assay; assay type: functional, cell-based
SiHa [23] = experiment: Antiproliferative activity against human SiHa cells assessed as inhibition of cell growth incubated for 72 hrs by CellTiter Glo assay; assay type: functional, cell-based
MOLT-4 = experiment: Antiproliferative activity against human MOLT-4 cells assessed as inhibition of cell growth incubated for 72 hrs by CellTiter Glo assay; assay type: functional, cell-based; conditions: MOLT-4, 72 h, pooled result: one value given for 6 cell lines, strains, targets or settings
Exportin-1 [24] = target: T1, Exportin-1; experiment: Covalent inhibition of CRM1 (unknown origin) binding to GST-tagged NES PKI at 20 uM incubated for 2 hrs in presence of DTT by Coomassie brilliant blue staining based pull-down assay
Exportin-1 [25] = target: T1, Exportin-1; experiment: Inhibition of CRM1 (unknown origin) binding to GST-tagged NES PKI at 100 uM incubated for 1.5 hrs by Coomassie brilliant blue staining based pull-down assay
Exportin-1 [26] = target: T1, Exportin-1; experiment: Inhibition of CRM1 (unknown origin) binding to GST-tagged NES PKI assessed as CRM1/NES band ratio incubated for 1.5 hrs by Coomassie brilliant blue staining based pull-down assay (reference value: 1.00); design: concentration or dose not given beside the values
Exportin-1 [27] = target: T1, Exportin-1; experiment: Inhibition of GFP-fused CRM1 cargo nuclear export in human HeLa cells at 200 uM incubated for 4 hrs by confocal microscopic analysis; assay type: cell-based
Exportin-1 [28] = target: T1, Exportin-1; experiment: Inhibition of CRM1 (unknown origin) binding to GST-tagged NES PKI at 100 uM incubated for 2 hrs in presence of DTT by Coomassie brilliant blue staining based pull-down assay
[29] = Toxicity in mouse assessed as body weight loss at 100 mg/kg, ip administered for 2 weeks; assay type: organism-based; conditions: in vivo, 336 h
[30] = Toxicity in mouse at 100 mg/kg, ip administered for 2 weeks; assay type: organism-based; conditions: in vivo, 336 h
Exportin-1 [31] = target: T1, Exportin-1; experiment: Non-covalent inhibition of CRM1 (unknown origin) binding to GST-tagged NES PKI at 20 uM incubated for 2 hrs in presence of DTT by Coomassie brilliant blue staining based pull-down assay

Structure (SMILES)	inhibition [3]	IC50 (HeLa [6])	inhibition (Exportin-1 [8])	Kd (Exportin-1 [9])	inhibition (Exportin-1 [13])	Activity (HepG2)	IC50 at 72 h [1]	Activity (OVCAR-8)	Activity (A549 [2])	Activity (MCF7)	Activity (A549 [4])	Activity (A549 [5])	Activity (PANC-1)	Activity (A549 [7])	Activity (HuCCT-1)	Activity (SW480)	Activity (A2780)	inhibition (A549 [10])	Activity (HeLa [11])	Activity (A549 [12])	also measured
CCC(=C/[C@H](C)C/C=C/C(C)=C/[C@@H](C)C(=O)[C@@H](C)[C@H](O)[C@@H](C)C/C(C)=C/C(=O)O)/C=C/[C@@H]1OC(=O)C=C[C@@H]1C [LEPTOMYCIN B]																					IC50 (SK-N-SH [18]): 0.3 nM; IC50 (HCT-116 [19]): 0.3 nM; IC50 (HCT-116 [20]): 0.3 nM; IC50 (SK-N-SH [21]): 0.3 nM; IC50 (SiHa [22]): 0.3 nM; IC50 (SiHa [23]): 0.3 nM
O=C(/C=C\n1cnc(-c2cc(C(F)(F)F)cc(C(F)(F)F)c2)n1)NNc1cnccn1 [SELINEXOR]		430 nM					730 nM														IC50 (MOLT-4): 34 nM; inhibition (Exportin-1 [24]): inactive
Cc1ccc(C)c(N2CCN(c3ccc(C(=O)O)cc3NC(=O)c3ccc(Cl)cc3)CC2)c1				12000 nM																	inhibition (Exportin-1 [25]): Active; Ratio (Exportin-1 [26]): 0.02; inhibition (Exportin-1 [27]): inactive; inhibition (Exportin-1 [28]): Active
CC(C)CCNC/C=C/[S+]([O-])c1cc(C(F)(F)F)cc(C(F)(F)F)c1 (stereo unspecified)																					inhibition (Exportin-1 [31]): inactive

Further lines, with some results ahead:

inhibition [3]	IC50 (HeLa [6])	inhibition (Exportin-1 [8])	Kd (Exportin-1 [9])	inhibition (Exportin-1 [13])	Structure (SMILES)	Activity (HepG2)	IC50 at 72 h [1]	Activity (OVCAR-8)	Activity (A549 [2])	Activity (MCF7)	Activity (A549 [4])	Activity (A549 [5])	Activity (PANC-1)	Activity (A549 [7])	Activity (HuCCT-1)	Activity (SW480)	Activity (A2780)	inhibition (A549 [10])	Activity (HeLa [11])	Activity (A549 [12])	also measured
inactive	15200 nM	Active	1800 nM	Active	O=C(O)c1ccc(N2CCN(c3cc(C(F)(F)F)ccc3C(F)(F)F)CC2)c(NC(=O)c2ccc(Br)cc2)c1	Active	40400 nM	Active	Active	Active	Active	Active	Active	Active	Active	Active	Active	Active	Active	Active	inhibition (Exportin-1 [14]): Active; Activity (Exportin-1 [15]): Active; inhibition at 40 µM (A549 [16]): 100%; Activity (Ishikawa): Active; solubility [17]: < 0.14 µg/mL; Activity (MDA-MB-453): Active
inactive	10200 nM	Active	1600 nM	Active	O=C(O)c1ccc(N2CCN(c3cc(C(F)(F)F)cc(C(F)(F)F)c3)CC2)c(NC(=O)c2ccc(Br)cc2)c1	Active	30900 nM	Active	Active	Active	Active	Active	Active	Active	Active	Active	Active	Active	Active	Active	inhibition (Exportin-1 [14]): Active; Activity (Exportin-1 [15]): Active; inhibition at 40 µM (A549 [16]): 100%; Activity (Ishikawa): Active; solubility [17]: < 0.14 µg/mL; Activity (MDA-MB-453): Active
inactive	14600 nM	Active	3600 nM	Active	O=C(O)c1ccc(N2CCN(c3cc(C(F)(F)F)ccc3C(F)(F)F)CC2)c(NC(=O)c2ccc(Cl)cc2)c1	Active	39000 nM	Active	Active	Active	Active	Active	Active	Active	Active	Active	Active	Active	Active	Active	Activity [29]: Non-Toxic; Activity [30]: Non-Toxic; inhibition (Exportin-1 [14]): Active; Activity (Exportin-1 [15]): Active; inhibition at 40 µM (A549 [16]): 100%; Activity (Ishikawa): Active; solubility [17]: < 0.14 µg/mL; Activity (MDA-MB-453): Active
